The results in this text go back to ChEMBL document CHEMBL4706692, “CC-90009: A Cereblon E3 Ligase Modulating Drug That Promotes Selective Degradation of GSPT1 for the Treatment of Acute Myeloid Leukemia” (J Med Chem, 2021).

SMILES strings stand for the structures. Where only a bound is given, the exact number is not on record here.

The subject of one assay is THLE-2. Description: Cytotoxicity against human THLE-2 cells assessed as cell viability incubated for 72 hrs by cell titer glo assay. Particulars: THLE-2, 72 h. It counts as cell-based. (In general: Cellular ATP, detected with luciferase, serves as a proxy for viable cell number.)
The test system of the next assay is KG-1. Put plainly: Antiproliferative activity against human KG-1 cells assessed as reduction in cell viability incubated for 72 hrs by cell titer glo assay. The assay is classed as functional, cell-based. The following applies: KG-1, 72 h.
A short description of assay [1]: Selectivity index, ratio of IC50 for cytotoxicity against human THLE-2 cells to IC50 for antiproliferative activity against human KG-1 cells.
The test system of the next assay is Kasumi 1. Put plainly: Antiproliferative activity against human Kasumi 1 cells assessed as reduction in cell viability incubated for 72 hrs by cell titer glo assay. The assay is classed as functional, cell-based. Particulars: Kasumi 1, 72 h.
A further assay has as its system OCI-AML2. Description: Antiproliferative activity against human OCI-AML2 cells assessed as reduction in cell viability incubated for 72 hrs by cell titer glo assay. It counts as functional, cell-based. Particulars: OCI-AML2, 72 h.
The test system of the next assay is MOLM-13. Put plainly: Antiproliferative activity against human MOLM-13 cells assessed as reduction in cell viability incubated for 72 hrs by cell titer glo assay. It counts as functional, cell-based. The following applies: MOLM-13, 72 h.
The next assay relates to KG-1a. Description: Antiproliferative activity against human KG-1a cells assessed as reduction in cell viability incubated for 72 hrs by cell titer glo assay. The assay is classed as functional, cell-based.
The next assay relates to NB-4. Put plainly: Antiproliferative activity against human NB4 cells assessed as reduction in cell viability incubated for 72 hrs by cell titer glo assay. The assay is classed as functional, cell-based. The following applies: NB-4, 72 h.
A further assay relates to OCI-AML-3. Put plainly: Antiproliferative activity against human OCI-AML3 cells assessed as reduction in cell viability incubated for 72 hrs by cell titer glo assay. It counts as functional, cell-based. Particulars: OCI-AML-3, 72 h.
The next assay relates to MV4-11. Description: Antiproliferative activity against human MV4-11 cells assessed as reduction in cell viability incubated for 72 hrs by cell titer glo assay. The assay is classed as functional, cell-based. Particulars: MV4-11, 72 h.
The next assay has as its system HL-60. Description: Antiproliferative activity against human HL-60 cells assessed as reduction in cell viability incubated for 72 hrs by cell titer glo assay. The following applies: HL-60, 72 h. It counts as functional, cell-based.
The next assay relates to U-937. Put plainly: Antiproliferative activity against human U937 cells assessed as reduction in cell viability incubated for 72 hrs by cell titer glo assay. The assay is classed as functional, cell-based. Particulars: U-937, 72 h.

For orientation: IC50 means the concentration that gives 50% inhibition. For the compound `O=C1CCC(N2Cc3cc(CNC(=O)C(F)(F)c4ccccc4)ccc3C2=O)C(=O)N1` (centres undefined), the IC50 in the assay with THLE-2 is more than 10 µM; in the assay on KG-1, 0.097 µM. Besides, the “Ratio IC50” value in assay [1] is recorded as more than 100.
On to `CC(C)(C(=O)NCc1ccc2c(c1)CN(C1CCC(=O)NC1=O)C2=O)c1ccccc1` (centres undefined), for which the IC50 in the assay on THLE-2 and with KG-1 was more than 10 µM throughout.
With `O=C1CCC(N2Cc3cc(CNC(=O)C(=O)c4ccccc4)ccc3C2=O)C(=O)N1` (centres undefined), the figures for the IC50 with THLE-2 and in the assay on KG-1 were 0.196 µM and 0.009 µM, respectively. Besides, the “Ratio IC50” value in assay [1] is on record as 22.
For the compound `Cc1ccc(NC(=O)NCc2ccc3c(c2)CN(C2CCC(=O)NC2=O)C3=O)cc1Cl` (centres undefined), the IC50 worked out at 0.01 µM with Kasumi 1; 0.021 µM in the assay with OCI-AML2; 0.008 µM in the assay on MOLM-13; 0.011 µM in the assay on THLE-2; 0.008 µM in the assay with KG-1a; 0.007 µM with KG-1. For the same compound, the IC50 in the assay on NB-4 came to 0.002 µM; in the assay with OCI-AML-3, 0.073 µM; in the assay on MV4-11, 0.005 µM; in the assay with HL-60 it was 0.003 µM; in the assay on U-937, 0.011 µM.
